Common to all, as to experiment: radiolabelled uptake in Xenopus oocytes
What all share (assay type): cell-based

Assay [1] addresses T1, DrAqp14 (Danio rerio, UniProt A0A0G2L4D1).
T1 construct: full-length cDNA from brain RNA in pT7Ts; Xenopus laevis oocytes (15 ng cRNA)
T1 sequence (A0A0G2L4D1 1-277): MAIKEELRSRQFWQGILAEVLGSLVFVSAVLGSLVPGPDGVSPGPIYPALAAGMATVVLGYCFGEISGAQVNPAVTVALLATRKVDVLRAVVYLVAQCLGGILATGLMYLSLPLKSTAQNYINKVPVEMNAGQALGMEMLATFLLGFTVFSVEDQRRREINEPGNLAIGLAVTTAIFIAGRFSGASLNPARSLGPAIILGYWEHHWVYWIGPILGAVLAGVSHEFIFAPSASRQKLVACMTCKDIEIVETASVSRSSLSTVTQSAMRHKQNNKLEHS
To be noted: 1 mM urea, isotonic, pH 7.5; labelled compound; channel transport.

The target in assay [2] is T2, SsAqp14 (Salmo salar, UniProt A0A6B9KBC3).
T2 construct: full-length cDNA from kidney RNA in pT7Ts; Xenopus laevis oocytes (15 ng cRNA)
T2 sequence (A0A6B9KBC3 1-277): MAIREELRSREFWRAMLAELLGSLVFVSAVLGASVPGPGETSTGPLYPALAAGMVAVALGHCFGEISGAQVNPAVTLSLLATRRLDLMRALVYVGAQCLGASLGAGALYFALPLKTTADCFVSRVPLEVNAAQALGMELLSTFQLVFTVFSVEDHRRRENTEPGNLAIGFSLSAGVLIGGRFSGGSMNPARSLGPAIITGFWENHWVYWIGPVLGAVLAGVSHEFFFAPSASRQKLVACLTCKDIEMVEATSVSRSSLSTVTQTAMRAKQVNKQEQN
Conditions: 1 mM urea, isotonic, pH 7.5; labelled compound; channel transport.

Assay [3] has as its target T3, SaAqp14 (Sparus aurata, UniProt A0A6B9KHM1).
T3 construct: full-length cDNA from brain RNA in pT7Ts; Xenopus laevis oocytes (15 ng cRNA); residues 261-276 TQNAMRAKQANKQENN
T3 sequence (A0A6B9KHM1 1-276): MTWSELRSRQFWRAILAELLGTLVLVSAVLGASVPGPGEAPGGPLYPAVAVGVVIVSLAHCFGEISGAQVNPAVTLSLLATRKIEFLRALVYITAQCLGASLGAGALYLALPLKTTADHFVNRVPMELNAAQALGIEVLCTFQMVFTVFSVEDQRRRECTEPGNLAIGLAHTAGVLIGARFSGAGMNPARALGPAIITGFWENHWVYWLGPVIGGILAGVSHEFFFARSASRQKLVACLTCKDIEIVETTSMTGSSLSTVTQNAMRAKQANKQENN
To be noted: 1 mM urea, isotonic, pH 7.5; labelled compound; channel transport.

In assay [4] the target is T2, SsAqp14. To be noted: 1 mM glycerol, isotonic, pH 7.5; labelled compound; channel transport.
Assay [5] concerns the target T1, DrAqp14. To be noted: 1 mM glycerol, isotonic, pH 7.5; labelled compound; channel transport.
The target of assay [6] is T3, SaAqp14. Conditions: 1 mM glycerol, isotonic, pH 7.5; labelled compound; channel transport.

The structures appear in SMILES notation.

Regarding `NC(N)=O` [urea], the urea uptake entry on DrAqp14 [1] is “oocytes expressing DrAqp14 are highly permeable to urea and hydrogen peroxide”; at SsAqp14 [2], “Oocytes injected with SaAqp14 and SsAqp14 are also slightly permeable to glycerol, urea”; on SaAqp14 [3] it was “Oocytes injected with SaAqp14 and SsAqp14 are also slightly permeable to glycerol, urea”.
Regarding `OCC(O)CO` [glycerol], the glycerol uptake entry is “Oocytes injected with SaAqp14 and SsAqp14 are also slightly permeable to glycerol, urea” at SsAqp14 [4]; “as for SaAqp14 and SsAqp14 show a lesser permeability to glycerol and methylamine” on DrAqp14 [5]; “Oocytes injected with SaAqp14 and SsAqp14 are also slightly permeable to glycerol, urea” on SaAqp14 [6].

The values are drawn from publication PMC6906440, “The vertebrate Aqp14 water channel is a neuropeptide-regulated polytransporter” (Communications Biology, 2019).
